Laboratory results taken from PMC7356787, “Structure-Activity Relationships for the Anaesthetic and Analgaesic Properties of Aromatic Ring-Substituted Ketamine Esters” (Molecules, 2020).

What was measured:
[1] = system: rats; assay: Tail flick analgaesic assessment (composite tail flick latency, cTFL); assay type: in vivo; conditions: rat, 20 mg/kg i.v. infused over 10 min; AUC of %MPE-time curve 0-60 min; measure of analgaesic magnitude/duration
Protocol: Analgaesic assessment protocol: Animal preparation was in accord with the anaesthetic assessment protocol above. Three rats were used in each study. Following venous cannulation, animals underwent infusion of ketamine or experimental compound at 20 mg/kg over a ten minute interval. A tail flick analgaesia meter (Colombus Instruments, Colombus, Ohio) was then used to determine thermal pain sensitivity. Radiant heat was applied using a shutter-controlled lamp as a heat source focused on a spot located 6–8 cm from the tip of the tail. The intensity of the beam was set at a level producing basal latency times between 2 and 4 s. To prevent thermal tissue injury the cut off time as set at 10 s. A digital response time indicator with a resolution of 0.1s measured the time from initiation of stimulus until tail withdrawal (the flick; TFL).
The TFL response following infusion of control and study drugs was calculated as a percentage of the maximum possible effect (MPE) such that:%MPE = [TFL (post-drug) – TFL (pre-drug)/10 s – TFL (pre-drug)] × 100%(1)
TFL latency was recorded at 5 min intervals from cessation of study drug infusion (time zero) to 60 min. Individual %MPE-time curves were constructed for each animal, and the area under the curve (AUC) adopted as a composite measure of induced analgaesia (cTFL).

[2] = system: rats; assay: Anaesthetic assessment by continuous intravenous infusion in rats (loss and return of righting reflex); assay type: in vivo; conditions: iv; rat, i.v. infusion starting at 20 mg/kg/min; measure of sedative potency; mean (SEM); read-out: Sedation LORR: minimal dose for loss of righting reflex (SEM)
Protocol: (§1) The compounds were evaluated for their ability to anaesthetise rats when administered by continuous intravenous infusion, as reported previously. Compounds were administered to initially deliver 20 mg/kg/min (weight-adjusted flow) to achieve a pedal withdrawal reflex score (PWR = 1), then titrated to maintain loss of righting reflex (LORR) for 10 min. Three rats were used in each study, with each group of rats also acting as their own ketamine control. Data were collected on the total dose of drug (mg/kg), to achieve LORR and a PWR = 1, and on the time (in seconds, from cessation of the infusion) to recovery of righting reflex (RORR) (recovery from the hypnotic anaesthesia effect). Given the complexity of the experimental protocol, the total dose for LORR (Table 1) is very consistent, with ranges of only 1.5-fold within each group. The consistency of the post-sedation recovery times are expectedly lower, with ranges of about 2.5-fold. During recovery the rats were monitored for multiple signs of behavioural dysfunction (see biology section for details) and the sum of these scores (from 0 to 4, with 0 being no effect and 4 being severe dysfunction) is given in Table 2. IC50 values for inhibition of the NMDA receptor were conducted by Eurofins PanLabs, Taiwan.
(§2) All animal experiments were conducted at the Ruakura Research Centre, Hamilton, New Zealand, using experimental protocols reviewed and approved by the Ruakura Animal Ethics Committee (ethics ref 12604/13786). Adult female Sprague-Dawley rats of approximately 250–350 g were evaluated in both anaesthetic and analgaesic study protocols. All study agents were delivered by tail vein cannula connected via minibore extension tubing to mechanised infusion pump.
(§3) Following acquisition of baseline physiologic parameters (heart rate, respiratory rate, PWR, and righting reflex (RR)) ketamine or an experimental compound at 10mg/mL were commenced at a rate (weight-adjusted) to deliver 20 mg/kg/min. Dose to loss of righting reflex (LORR see below), and subsequent pedal withdrawal score of 1 (PWR see below) were recorded. Following attaining a PWR of 1, infusion rate was reduced to 6.7 mg/kg/min, then titrated in an up-and-down fashion as required to maintain both dorsal recumbency, and a PWR = 1, to 10 min before cessation. Each study used three rats, with each group of rats also acting as their own ketamine control. Prior odds/evens randomisation determined the order of study drug administration was determined by with a recovery interval of at least three hours afforded between experiments. Records of PWR and RR were made at one-minute intervals throughout, from cessation of infusion to return of righting reflex (RORR), and from cessation of infusion to the animals displaying independent locomotion (walk).
Loss of Righting Reflex (LORR): This is primarily used to assess anaesthetic hypnotic effect. Righting reflex is judged absent when the rat fails to right from a position of dorsal recumbency to a position of sternal recumbency on three attempts performed in rapid succession. Dose to LORR is termed effective potency.

[3] = molecular target: N-methyl-D-aspartate receptor; assay: Inhibition of the NMDA receptor (Eurofins Panlabs Taiwan); assay type: binding; conditions: conducted by Eurofins Panlabs Taiwan
Protocol: as §1

[4] = system: rats; assay: Behavioural dysfunction scoring during recovery from infusion; assay type: in vivo; conditions: rat, during wake-up, sum score 0 (no effect) to 4 (severe dysfunction), mean (SEM)
Protocol: as §1
Behavioural dysfunction scoring: This was undertaken according to the following table. Observations were made over a one minute interval every five minutes from cessation of infusion until return of normal behaviours (total score = 0). A score of 1 was accorded for any positive behavioural aberration for each of four categories (maximal score 4) during wake-up.
Duration of any behavioural aberration was recorded from RORR as follows: score 0 = nil; score1 = 0–120 s; score 2 = 121–300 s; score 3 = 301–600 s; score 4 = 600+ s.

[5] = system: rats; assay: Pedal withdrawal reflex (PWR) scoring during intravenous infusion (analgaesic potency); assay type: in vivo; conditions: rat, i.v. infusion, dose to PWR = 1, mean (SEM), read-out: Analgaesia potency: minimal dose for loss of pedal withdrawal reflex (SEM)
Protocol: as §1, §2, §3
Pedal Withdrawal Reflex (PWR) scoring: Nociceptive testing in animals was conducted via 1 s application of constant pressure (firm digital pressure) over the forepaw of the animal. Pedal withdrawal reflex testing is primarily used to assess analgaesic effect, and responses are graded accordingly: 0, absent; 1, flicker; 2, moderate withdrawal; 3, fast withdrawal; 4, Fast withdrawal with cry/preceding apnoea (modified from).

[6] = Drug half-life in rats; conditions: rat, in vivo
Description: Table 1 Biological and physiochemical data for esters of ring-substituted ketamine analogues. | column: Rat / t½ ^e (min)

SMILES | Analgaesia cTFL (composite tail flick latency) [1] [s] | minimal effective dose [2] [mg/kg] | IC50 [3] [µM] | Behavioural dysfunction Score (SEM): severity on recovery [4] | Behavioural dysfunction Score (SEM): severity on recovery ([4]; listed as ketamine) | minimal effective dose [5] [mg/kg] | half-life [6] [min]
CNC1(c2ccccc2Cl)CCCCC1=O (centres unmarked) [compound 1, ketamine] | 671 | 21 | 0.7 | 3 (0) | 3 | 28 | 44.4
CC(C)OC(=O)CCNC1(c2cccs2)CCCCC1=O (centres unmarked) [20a] | 362 | > 200 | 157 | 1 (1) | – | > 200 | –
COC(=O)CCCCNC1(c2ccccc2Cl)CCCCC1=O (centres unmarked) [5b] | 374 | 34 | 3.2 | 2 (0) | – | 44 | 0.7
COC(=O)CCCCNC1(c2ccccc2OC(F)(F)F)CCCCC1=O (centres unmarked) [9b] | 119 | > 200 | 121 | 3 (1) | – | > 200 | –
COC(=O)CCCCNC1(c2ccc(OC(F)(F)F)cc2)CCCCC1=O (centres unmarked) [19b] | 194 | > 200 | 597 | 0 (0) | – | > 200 | –
COC(=O)CCCCNC1(c2ccccc2C)CCCCC1=O (centres unmarked) [6b] | 91 | 37 | 3.4 | 1 (0) | – | 43 | –
COC(=O)CCCCNC1(c2ccc(Cl)cc2)CCCCC1=O (centres unmarked) [15b, Methyl 5-((1-(4-chlorophenyl)-2-oxocyclohexyl)amino)pentanoate] | 576 | 89 | 101 | 3 (1) | – | 100 | –
COC(=O)CCCCNC1(c2cccc(Cl)c2)CCCCC1=O (centres unmarked) [10b] | 54 | 51 | 13 | 3 (1) | – | 61 | –
CC(C)OC(=O)CCNC1(c2cccc(OC(F)(F)F)c2)CCCCC1=O (centres unmarked) [14a] | 274 | > 200 | 211 | 0 (0) | – | > 200 | –
COC(=O)CCCCNC1(c2cccc(OC)c2)CCCCC1=O (centres unmarked) [12b] | 210 | 50 | 5.6 | 3 (1.4) | – | 58 | –
CC(C)OC(=O)CCNC1(c2ccccc2Cl)CCCCC1=O (centres unmarked) [5a] | 1384 | 33 | 134 | 2 (1) | – | 37 | 3.4
